Common to all, as to assay type: cell-based
Experiment [1] has as its target T1, human TLR9 (Homo sapiens, UniProt Q9NR96).
T1 construct: host or cells: HEK-Blue cells (HEK293-derived reporter line)
T1 sequence (Q9NR96 26-1032): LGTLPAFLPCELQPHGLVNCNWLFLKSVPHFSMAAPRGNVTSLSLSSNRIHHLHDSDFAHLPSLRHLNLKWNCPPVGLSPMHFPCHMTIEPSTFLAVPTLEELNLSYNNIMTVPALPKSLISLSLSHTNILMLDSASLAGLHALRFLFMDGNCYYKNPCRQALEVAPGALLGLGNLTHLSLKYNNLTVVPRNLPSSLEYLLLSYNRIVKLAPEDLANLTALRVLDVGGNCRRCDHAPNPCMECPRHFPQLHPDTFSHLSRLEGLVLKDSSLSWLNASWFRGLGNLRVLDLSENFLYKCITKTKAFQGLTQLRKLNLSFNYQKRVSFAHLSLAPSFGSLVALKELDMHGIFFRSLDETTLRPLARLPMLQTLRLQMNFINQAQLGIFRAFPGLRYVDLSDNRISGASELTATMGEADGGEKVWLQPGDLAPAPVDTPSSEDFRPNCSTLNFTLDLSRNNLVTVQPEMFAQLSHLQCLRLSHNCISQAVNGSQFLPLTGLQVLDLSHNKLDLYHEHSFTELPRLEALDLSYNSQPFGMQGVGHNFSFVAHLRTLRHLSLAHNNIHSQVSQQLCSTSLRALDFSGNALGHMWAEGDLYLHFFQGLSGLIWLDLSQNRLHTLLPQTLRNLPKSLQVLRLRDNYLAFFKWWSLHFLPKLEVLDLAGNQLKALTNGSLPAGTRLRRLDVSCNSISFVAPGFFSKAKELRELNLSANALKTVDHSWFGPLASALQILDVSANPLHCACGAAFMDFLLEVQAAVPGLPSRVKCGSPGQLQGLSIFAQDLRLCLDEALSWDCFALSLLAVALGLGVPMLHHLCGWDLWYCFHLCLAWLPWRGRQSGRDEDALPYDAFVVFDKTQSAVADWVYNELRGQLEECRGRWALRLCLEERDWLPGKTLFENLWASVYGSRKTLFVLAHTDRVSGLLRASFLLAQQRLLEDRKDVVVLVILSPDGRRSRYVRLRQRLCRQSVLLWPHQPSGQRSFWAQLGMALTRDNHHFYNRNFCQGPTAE
The experiment in a line: TLR9 inhibition reporter assay (HEK-Blue cells, SEAP reporter, ODN2006 stimulation). As to conditions: HEK-Blue cells overexpressing human TLR9, SEAP reporter, ODN2006 5 nM. In a few lines:
(§1)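 Agonists (final): TLR7 gardiquimod 7.5 μM; TLR8 R848 15.9 μM; TLR9 ODN2006 5 nM. HEK-Blue reporter cells, 30 min RT compound pre-incubation, 0.05 nM–50 μM dose range, 22 h at 37 °C, colorimetric SEAP detection medium. % inhibition relative to agonist+DMSO and known-inhibitor wells.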

The target of experiment [2] is T2, human TLR7 (Homo sapiens, UniProt Q9NYK1).
T2 construct: host or cells: HEK-Blue cells (HEK293-derived reporter line)
T2 sequence (Q9NYK1 27-1049): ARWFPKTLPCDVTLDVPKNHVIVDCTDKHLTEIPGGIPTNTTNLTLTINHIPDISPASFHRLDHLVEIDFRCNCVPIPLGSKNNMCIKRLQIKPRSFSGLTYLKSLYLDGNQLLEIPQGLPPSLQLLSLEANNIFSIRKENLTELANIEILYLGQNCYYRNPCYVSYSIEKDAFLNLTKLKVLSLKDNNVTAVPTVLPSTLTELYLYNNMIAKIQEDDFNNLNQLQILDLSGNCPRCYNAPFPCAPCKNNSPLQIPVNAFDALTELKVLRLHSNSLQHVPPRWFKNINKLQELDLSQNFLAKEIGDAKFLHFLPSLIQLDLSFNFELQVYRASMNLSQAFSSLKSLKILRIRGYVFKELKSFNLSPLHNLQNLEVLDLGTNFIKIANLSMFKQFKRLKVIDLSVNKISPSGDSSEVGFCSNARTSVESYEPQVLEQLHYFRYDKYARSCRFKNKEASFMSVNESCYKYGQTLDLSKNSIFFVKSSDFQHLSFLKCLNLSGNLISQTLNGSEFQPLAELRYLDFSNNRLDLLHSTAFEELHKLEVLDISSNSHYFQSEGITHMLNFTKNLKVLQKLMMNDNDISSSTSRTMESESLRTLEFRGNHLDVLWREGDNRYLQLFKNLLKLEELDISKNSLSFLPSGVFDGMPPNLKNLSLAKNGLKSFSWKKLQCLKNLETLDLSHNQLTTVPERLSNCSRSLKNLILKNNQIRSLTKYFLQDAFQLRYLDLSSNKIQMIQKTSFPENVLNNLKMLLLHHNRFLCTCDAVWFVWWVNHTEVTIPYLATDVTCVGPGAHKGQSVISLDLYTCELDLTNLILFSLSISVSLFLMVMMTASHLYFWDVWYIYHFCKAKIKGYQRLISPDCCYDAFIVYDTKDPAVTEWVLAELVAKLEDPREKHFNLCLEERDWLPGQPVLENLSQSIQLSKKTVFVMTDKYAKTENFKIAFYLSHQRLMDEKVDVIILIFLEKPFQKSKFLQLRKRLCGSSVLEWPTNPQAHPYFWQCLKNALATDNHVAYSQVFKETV
Kind of experiment: TLR7 inhibition reporter assay (HEK-Blue cells, SEAP reporter, gardiquimod stimulation). The conditions noted are these: HEK-Blue cells overexpressing human TLR7, SEAP reporter, gardiquimod 7.5 μM. In a few lines:
as §1
For orientation: Reporter assays use an easily measured gene product as a stand-in for the process of interest.

In experiment [3] the target is T3, human TLR8 (Homo sapiens, UniProt Q9NR97).
T3 construct: host or cells: HEK-Blue cells (HEK293-derived reporter line)
T3 sequence (Q9NR97 27-1041): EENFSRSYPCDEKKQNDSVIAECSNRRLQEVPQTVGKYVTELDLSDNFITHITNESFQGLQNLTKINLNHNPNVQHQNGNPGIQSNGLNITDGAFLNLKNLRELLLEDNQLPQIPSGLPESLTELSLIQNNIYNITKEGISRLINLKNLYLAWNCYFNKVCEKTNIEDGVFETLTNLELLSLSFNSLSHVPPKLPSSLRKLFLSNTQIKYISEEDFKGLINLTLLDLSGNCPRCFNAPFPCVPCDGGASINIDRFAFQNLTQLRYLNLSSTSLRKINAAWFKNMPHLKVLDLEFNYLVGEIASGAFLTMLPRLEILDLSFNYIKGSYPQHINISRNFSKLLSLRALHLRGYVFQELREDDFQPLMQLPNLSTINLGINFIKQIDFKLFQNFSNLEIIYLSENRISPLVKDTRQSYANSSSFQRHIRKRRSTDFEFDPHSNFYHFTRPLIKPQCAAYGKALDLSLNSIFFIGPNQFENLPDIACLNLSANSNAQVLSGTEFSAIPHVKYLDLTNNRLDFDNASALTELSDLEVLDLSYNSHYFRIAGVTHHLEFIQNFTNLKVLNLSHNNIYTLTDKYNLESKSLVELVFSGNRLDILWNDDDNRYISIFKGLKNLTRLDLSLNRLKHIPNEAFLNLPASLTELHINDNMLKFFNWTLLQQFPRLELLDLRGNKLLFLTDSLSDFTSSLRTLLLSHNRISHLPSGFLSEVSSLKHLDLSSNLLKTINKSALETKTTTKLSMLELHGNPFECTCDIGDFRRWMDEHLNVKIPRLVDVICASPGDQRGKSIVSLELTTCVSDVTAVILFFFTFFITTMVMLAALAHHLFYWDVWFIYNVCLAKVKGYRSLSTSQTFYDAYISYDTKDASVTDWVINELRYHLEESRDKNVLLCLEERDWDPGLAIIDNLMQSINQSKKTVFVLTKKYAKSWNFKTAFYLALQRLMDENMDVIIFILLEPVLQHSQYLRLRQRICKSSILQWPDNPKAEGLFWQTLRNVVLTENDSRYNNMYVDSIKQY
Kind of experiment: TLR8 inhibition reporter assay (HEK-Blue cells, SEAP reporter, R848 stimulation). The conditions noted are these: HEK-Blue cells overexpressing human TLR8, SEAP reporter, R848 15.9 μM. In a few lines:
as §1

On to `Cc1ccnc2[nH]cc(-c3[nH]c4ccc(C5CCN(C(=O)CN(C)C)CC5)cc4c3C(C)C)c12` [Example 458, 2-(dimethylamino)-1-(4-(3-isopropyl-2-(4-methyl-1H-pyrrolo[2,3-b]pyridin-3-yl)-1H-indol-5-yl)piperidin-1-yl)ethan-1-one], for which the IC50 (usually the point on the concentration scale where inhibition reaches its midpoint) in experiment [1] is 1000 to 50000 nM; in experiment [2], below 100 nM; in experiment [3], 100 to 1000 nM.
As to `Cc1c(-c2ccnc3[nH]ncc23)[nH]c2ccc(C3CCNCC3)cc12` [Example 231, 4-(3-methyl-5-(piperidin-4-yl)-1H-indol-2-yl)-1H-pyrazolo[3,4-b]pyridine], the figures for the IC50 in experiment [1], in experiment [2] and in experiment [3] were 1000 to 50000 nM, 100 to 1000 nM and 100 to 1000 nM, respectively.
For `CC(C)c1c(-c2cc3c(s2)CNCC3)[nH]c2ccc(C3CCNCC3)cc12` [Example 207, 2-(3-isopropyl-5-(piperidin-4-yl)-1H-indol-2-yl)-4,5,6,7-tetrahydrothieno [2,3-c]pyridine], the IC50 is below 100 nM in experiment [1], 100 to 1000 nM in experiment [2] and 1000 to 50000 nM in experiment [3].
Taken in the same sequence, the figures for `Cc1c(-c2[nH]c3ccc(C4CCN(CC(C)(C)O)CC4)cc3c2C(C)C)ccc2c1cnn2C` [Example 763, 1-(4-(2-(1,4-dimethyl-1H-indazol-5-yl)-3-isopropyl-1H-indol-5-yl)piperidin-1-yl)-2-methylpropan-2-ol] were 1000 to 50000 nM, below 100 nM and below 100 nM.
On to `CC(C)c1c(-c2ccnc3[nH]ncc23)[nH]c2ccc(C3CCN(C4CCOCC4)CC3)cc12` [Example 682, 4-(3-isopropyl-5-(1-(tetrahydro-2H-pyran-4-yl)piperidin-4-yl)-1H-indol-2-yl)-1H-pyrazolo[3,4-b]pyridine], for which the values for the IC50 in experiment [1], in experiment [2] and in experiment [3] were 1000 to 50000 nM, below 100 nM and below 100 nM, respectively.
As for `CC(C)c1c(-c2ccnc3[nH]ncc23)[nH]c2cc(F)c(C3CCN(CC4CCN(C(C)C)C4)CC3)cc12` (stereo not drawn) [Example 852, 4-(6-fluoro-3-isopropyl-5-(1-((1-isopropylpyrrolidin-3-yl)methyl)piperidin-4-yl)-1H-indol-2-yl)-1H-pyrazolo[3,4-b]pyridine], the IC50 is 100 to 1000 nM in experiment [1], below 100 nM in experiment [2] and below 100 nM in experiment [3].
As to `Cc1cc(-c2[nH]c3ccc(C4CCN(C5COC5)CC4)cc3c2C(C)C)cn2nncc12` [Example 737, 6-(3-isopropyl-5-(1-(oxetan-3-yl)piperidin-4-yl)-1H-indol-2-yl)-4-methyl-[1,2,3]triazolo[1,5-a]pyridine], the IC50 in experiment [1], in experiment [2] and in experiment [3] was 1000 to 50000 nM in each case.
In the case of `COc1cc(-c2[nH]c3ccc(C4CCNCC4)cc3c2C(C)C)cc2nccn12` [Example 163, 7-(3-isopropyl-5-(piperidin-4-yl)-1H-indol-2-yl)-5-methoxyimidazo[1,2-a]pyridine], the IC50 in experiment [1], in experiment [2] and in experiment [3] was 100 to 1000 nM in each case.
For the compound `CNCCN1CCC(c2ccc3[nH]c(-c4ccc5[nH]ccc5c4)c(C)c3c2)CC1` [Example 667, N-methyl-2-(4-(3-methyl-1H,1′H-[2,5′-biindol]-5-yl)piperidin-1-yl)ethan-1-amine], the IC50 in experiment [1] lay in the range of 100 to 1000 nM; in experiment [2] it was 1000 to 50000 nM; in experiment [3] it was 1000 to 50000 nM.
Take `CC(C)c1c(-c2ccnc3cn[nH]c23)[nH]c2ccc(C3CCNCC3)cc12` [Example 54, 7-(3-isopropyl-5-(piperidin-4-yl)-1H-indol-2-yl)-1H-pyrazolo[4,3-b]pyridine]: the results for the IC50 in experiment [1], in experiment [2] and in experiment [3] were 100 to 1000 nM, below 100 nM and below 100 nM, respectively.
As for `CNCCN1CCC(c2ccc3[nH]c(-c4ccc5nccn5c4)c(CC(F)F)c3c2)CC1` [Example 681, 2-(4-(3-(2,2-difluoroethyl)-2-(imidazo[1,2-a]pyridin-6-yl)-1H-indol-5-yl)piperidin-1-yl)-N-methylethan-1-amine], the 50% inhibitory concentration (IC50) in experiment [1], in experiment [2] and in experiment [3] was below 100 nM each time.
In the case of `CC(C)c1c(-c2ccnc3c2ccn3S(C)(=O)=O)[nH]c2ccc(C3CCN(C(=O)CN(C)C)CC3)cc12` [Example 450, 2-(dimethylamino)-1-(4-(3-isopropyl-2-(1-(methylsulfonyl)-1H-pyrrolo[2,3-b]pyridin-4-yl)-1H-indol-5-yl)piperidin-1-yl)ethanone], the IC50 was 100 to 1000 nM in experiment [1], 1000 to 50000 nM in experiment [2] and below 100 nM in experiment [3].
Turning to `CCc1c(-c2ccnc3[nH]ccc23)[nH]c2ccc(C3CCN(C4CCN(CC(C)C)CC4)CC3)cc12` [Example 849, 4-(3-ethyl-5-(1′-isobutyl-[1,4′-bipiperidin]-4-yl)-1H-indol-2-yl)-1H-pyrrolo[2,3-b]pyridine], the results for the IC50 in experiment [1], in experiment [2] and in experiment [3] were 100 to 1000 nM, 100 to 1000 nM and below 100 nM, respectively.

These data come from patent US11739098B2 (BRISTOL-MYERS SQUIBB COMPANY, priority 2017, dated 2023).
